# From US20250026725A1, “HYDRATE CRYSTAL OF 5-CHLORO-4-(3-CHLORO-4- METHYLPHENYL)-1H-IMIDAZOLE-2-CARBONITRILE” (ISHIHARA SANGYO KAISHA, LTD., priority 2021, published 2025)
# Tested on: Malassezia restricta (IFM55992)
# Experiment: Antifungal activity test, minimum fungicidal concentration (MFC100)
# Assay type: cell-based
# Conditions: 1 minute contact, MLNA medium 32° C. for 72 hours, read-out: Minimal fungicidal concentration (MFC100)
# Procedure: A fungus of Malassezia (Malassezia restricta) that had been cultured on a CHROMagar (trademark) Malassezia/Candida raw medium (peptone, specialized enzyme-substrate mixture, chloramphenicol, olive oil, agar, manufactured by KANTO CHEMICAL CO., INC.) for 5 to 7 days was suspended in physiological saline to prepare so as to have an absorbance of 0.025 at 600 nm. The compound under test dissolved in DMSO was added thereto so as to have final concentrations of 200, 100, 50, and 25 ppm. 1 minute later, 10 μL of suspension and 10 mL of physiological saline were added to a syringe and stirred, and then the mixture was filtered by connecting to a 37 mm quality monitor (manufactured by Pall Corporation) and washed twice with 10 ml of physiological saline. The membrane filters were removed from the quality monitor, and placed and cultured on a Leeming & Notman agar Modified medium (MLNA medium) (peptone, glucose, yeast extract, dried bovine bile, glycerol, glycerin stearate, Tween 60, olive oil, agar) at 32° C. for 72 hours, and the presence or absence of the development of colonies was examined to determine a minimum fungicidal concentration MFC100). A minimum fungicidal concentration (MFC100) for Malassezia restricta (IFM55992) was determined in the same method as in Test Example 11 except that the hydrate crystal (Production Example 2) was used as the compound under test.
smiles,measurement,value
"Cc1ccc(-c2nc(C#N)[nH]c2Cl)cc1Cl [Anhydrous crystal, 5-chloro-4-(3-chloro-4-methylphenyl)-1H-imidazole-2-carbonitrile]",MFC,200 mg/L
